Structures can show the parent of a compound that is named as a salt. Where two headings read alike, the source gives them in different places. Each block holds one compound with its values, some of them ahead of it.
Legend:
[1] = biological target: T1, human placental alkaline phosphatase (ALP) (Homo sapiens, UniProt P05187); test: Hydrolysis of prodrug in human placental ALP solutions; type: in vitro ADME; settings: human placental ALP solution, 37°C, 120 min, read-out: t1/2 (min) of prodrug disappearance
T1 construct: To study the hydrolysis of lab in a purified form of human ALP, Iab was incubated in human placental ALP solutions; host or cells: human placenta (inferred from the name and from 'ALP derived from humans')
T1 sequence (P05187 23-506 limits assumed): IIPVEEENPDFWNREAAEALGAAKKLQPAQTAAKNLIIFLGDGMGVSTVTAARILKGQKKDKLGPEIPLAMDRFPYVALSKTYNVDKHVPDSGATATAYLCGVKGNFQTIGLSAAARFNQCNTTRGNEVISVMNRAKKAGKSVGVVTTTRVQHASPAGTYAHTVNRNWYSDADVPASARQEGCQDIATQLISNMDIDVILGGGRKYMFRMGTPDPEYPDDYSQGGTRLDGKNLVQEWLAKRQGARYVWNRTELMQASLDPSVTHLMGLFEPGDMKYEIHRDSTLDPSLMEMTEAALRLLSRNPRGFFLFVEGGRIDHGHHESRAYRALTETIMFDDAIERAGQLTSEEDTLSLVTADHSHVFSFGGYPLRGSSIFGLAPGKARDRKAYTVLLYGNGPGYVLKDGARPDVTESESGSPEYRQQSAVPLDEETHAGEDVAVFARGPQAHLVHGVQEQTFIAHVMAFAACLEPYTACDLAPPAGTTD
Procedure: (§1) Solid human placental ALP was obtained from Sigma (P-3895, St. Louis, Mo.). […] Solutions of 100 and 10 units/L were obtained by serial dilution. Iab was incubated in the 10, 100 and 1000 units/L solutions (n=2) at 37° C. for 2 hr. The starting concentration of Iab in the incubation was 10 μM. Aliquots of 100 μL samples were taken at pre-determined times and added into K2EDTA microtainers followed by the addition of 200 μL of acetonitrile.
as §1, with “Ibb” for “Iab”
as §1, with “Icb” for “Iab”, “acetonitrile. The supernatant was analyzed for both Icb and IVe by LC/MS/MS.” for “acetonitrile.”

[2] = system: rat hepatocytes; test: Hydrolysis of prodrug in hepatocytes (rat); type: in vitro ADME
Procedure: (§2) The in vitro intrinsic clearance of Ibb in hepatocytes (Clint) was calculated as follows: Clint(μL/min/million cells)=Rate/CE where Rate is the rate of metabolism in hepatocytes (pmol/min/million cells), and CE is the concentration of Ibb in the incubation. The in vitro intrinsic clearance of Icb in hepatocytes (Clint) was calculated as follows: Clint(μL/min/million cells)=Rate/CE where Rate is the rate of metabolism in hepatocytes (pmol/min/million cells), and CE is the concentration of Icb in the incubation.

[3] = system: human hepatocytes; test: Hydrolysis of prodrug in hepatocytes (human); type: in vitro ADME
Procedure: as §2

[4] = in vitro; settings: monkey, serum
[5] = Stability of prodrug in Tris-HCl buffer; settings: for stability / conversion of prodrug to parent in Tris-HCl buffer: 60 min (Iab) or 90 min (Ibb, Icb); for Ibb: Ibb in Tris-HCl buffer, 37° C., n = 2
[6] = Stability of prodrug in fresh EDTA blood (human); settings: for Iab / IVa Formed: Human EDTA blood; for Ibb: Ibb in fresh human EDTA blood, 37° C., n = 2
[7] = Stability (hydrolysis) of prodrug in fresh serum (rat); settings: for Iab / IVa Formed: Rat Serum; for Ibb: Ibb in fresh rat serum, 37° C., n = 2
[8] = Stability (hydrolysis) of prodrug in fresh serum (dog); settings: for Iab / IVa Formed: Dog Serum; for Ibb: Ibb in fresh dog serum, 37° C., n = 2
[9] = pH 7.5, ALP Activity 10 Units/L
[10] = pH 7.5, ALP Activity 100 Units/L
[11] = pH 7.5, ALP Activity 1000 Units/L

half-life at 10 μM [1, 9]: 250 min
half-life at 10 μM [1, 10]: 29 min
half-life at 10 μM [1, 11]: 2.4 min
hydrolysis in the presence of hepatocytes [2]: hydrolyzed
hydrolysis in the presence of hepatocytes [3]: hydrolyzed
half-life at 10 μM [4]: 30 min
SMILES: COc1cnc(-n2cnc(C)n2)c2c1c(C(=O)C(=O)N1CCN(C(=O)c3ccccc3)CC1)cn2COP(=O)(O)O [Icb, [3-[(4-benzoylpiperazin-1-yl)(oxo)acetyl]-4-methoxy-7-(3-methyl-1H-1,2,4-triazol-1-yl)-1H-pyrrolo[2,3-c]pyridin-1-yl]methyl dihydrogen phosphate, 2-amino-2-(hydroxymethyl)propane-1,3-diol salt (1:1)]

half-life at 10 μM [1, 9]: 186 min
half-life at 10 μM [1, 10]: 14 min
half-life at 10 μM [1, 11]: 1.4 min
hydrolysis in the presence of hepatocytes ([2]; rat hepatocytes, qualitative): hydrolyzed
hydrolysis in the presence of hepatocytes ([3]; human hepatocytes, qualitative): hydrolyzed
half-life at 10 μM [4]: 365 min
stability / conversion of prodrug to parent in Tris-HCl buffer ([5]; 37°C): stable
Iab / IVa Formed ([5]; Tris-HCl buffer (0.1 M, pH 7.5), 37°C, 0 min): 10 µM
Iab / IVa Formed ([5]; Tris-HCl buffer, 20 min): 10 µM
Iab / IVa Formed ([5]; Tris-HCl buffer, 40 min): 7.6 µM
Iab / IVa Formed ([5]; Tris-HCl buffer, 60 min): 10 µM
Iab / IVa Formed ([6]; 0 min): 11 µM
Iab / IVa Formed ([6]; 15 min): 11 µM
Iab / IVa Formed ([6]; 30 min): 7.1 µM
Iab / IVa Formed ([6]; 45 min): 9.8 µM
Iab / IVa Formed ([6]; 60 min): 9.8 µM
Iab / IVa Formed ([7]; 37°C, 0 min): 6.8 µM
Iab / IVa Formed ([7]; 15 min): 5.8 µM
Iab / IVa Formed ([7]; 30 min): 5.4 µM
Iab / IVa Formed ([7]; 45 min): 4.9 µM
Iab / IVa Formed ([7]; 60 min): 4.3 µM
Iab / IVa Formed ([7]; 90 min): 3.3 µM
Iab / IVa Formed ([8]; 37°C, 0 min): 9.2 µM
Iab / IVa Formed ([8]; 15 min): 9.0 µM
Iab / IVa Formed ([8]; 30 min): 7.8 µM
Iab / IVa Formed ([8]; 45 min): 7.8 µM
Iab / IVa Formed ([8]; 60 min): 7.1 µM
Iab / IVa Formed ([8]; 90 min): 6.7 µM
SMILES: COc1cnc(OC)c2c1c(C(=O)C(=O)N1CCN(C(=O)c3ccccc3)CC1)cn2COP(=O)(O)O [Iab, {3-[(4-benzoylpiperazin-1-yl)(oxo)acetyl]-4,7-dimethoxy-1H-pyrrolo[2,3-c]pyridin-1-yl}methyl dihydrogen phosphate, L-lysine salt (1:1)]

SMILES: O=C(C(=O)N1CCN(C(=O)c2ccccc2)CC1)c1cn(COP(=O)(O)O)c2c(-n3ccnn3)ncc(F)c12 [Ibb, [3-[(4-benzoylpiperazin-1-yl)(oxo)acetyl]-4-fluoro-7-(1H-1,2,3-triazol-1-yl)-1H-pyrrolo[2,3-c]pyridin-1-yl]methyl dihydrogen phosphate, L-lysine salt (1:1)]
half-life at 10 μM [1, 9]: 198 min
half-life at 10 μM [1, 10]: 16 min
half-life at 10 μM [1, 11]: 2 min
hydrolysis in the presence of hepatocytes ([2]; rat hepatocytes, qualitative): hydrolyzed
hydrolysis in the presence of hepatocytes ([3]; human hepatocytes, qualitative): hydrolyzed
half-life at 15 μM [4]: 15 min
stability / conversion of prodrug to parent in Tris-HCl buffer ([5]; 37°C): less than 2%
Ibb ([5]; 0 min): 14 µM
Ibb ([5]; 15 min): 12 µM
Ibb ([5]; 30 min): 13 µM
Ibb ([5]; 45 min): 12 µM
Ibb ([5]; 60 min): 13 µM
Ibb ([5]; 90 min): 12 µM
Ibb ([6]; 0 min): 16 µM
Ibb ([6]; 15 min): 15 µM
Ibb ([6]; 30 min): 16 µM
Ibb ([6]; 45 min): 16 µM
Ibb ([6]; 60 min): 16 µM
Ibb ([6]; 90 min): 18 µM
conversion of prodrug to parent in blood containing EDTA ([6]; human blood, 37°C, 60 min (Iab) or 90 min (Ibb, Icb)): < 2%
Ibb ([7]; 0 min): 12 µM
Ibb ([7]; 15 min): 9.4 µM
Ibb ([7]; 30 min): 9.2 µM
Ibb ([7]; 45 min): 9.4 µM
Ibb ([7]; 60 min): 9.3 µM
Ibb ([7]; 90 min): 9.0 µM
Ibb ([8]; 0 min): 13 µM
Ibb ([8]; 15 min): 12 µM
Ibb ([8]; 30 min): 11 µM
Ibb ([8]; 45 min): 10 µM
Ibb ([8]; 60 min): 10 µM
Ibb ([8]; 90 min): 8.9 µM
